Source: patent US10407409B2, “6-(5-hydroxy-1H-pyrazol-1-yl)nicotinamide inhibitors of PHD” (Takeda Pharmaceutical Company Limited, priority 2013, dated 2019)

Experiments:
[1] = biological target: PHD2 enzyme (residues 181-417) (Homo sapiens (Human), UniProt Q9GZT9); test: Inhibition of PHD enzyme (LC/MS peptide hydroxylation assay); format: biochemical; details: PHD2 (residues 181-417) 5 nM, 60 min pre-incubation, -log(IC50), IC50 molar
Procedure: Example A Inhibition of PHD Enzyme
The IC50 values for the PHD2 enzyme (residues 181-417) were determined by mixing increasing amounts of inhibitor with a fixed amount of enzyme (5 nM, final concentration) and Biotin labeled peptide (Biotin-Asp-Leu-Glu-Met-Leu-Ala-Pro-Tyr-Ile-Pro-Met-Asp-Asp-Asp-Phe-Gln-Leu, 1 uM final concentration) and 2-Oxyglutarate (2 uM final concentration) in 50 mM HEPES, 50 mM KCl, 0.5 mM TCEP, 2 uM FeCl2, 0.1 mg/ml BSA, at pH 7.3. The reaction was conducted by pre-incubating the enzyme in the presence of inhibitor for 60 min at room temperature. The activity of the free enzyme was measured by adding the peptide, the 2-Oxoglutarate (see above for final concentrations), and Ascorbic Acid (1 mM final concentration). The enzymatic activity was quenched after 60 min by adding an excess of a tight binding inhibitor to the assay mixture. The amount of product released was measured by using a LC/MS system (Agilent HPLC with Applied Biosystems API3000 Mass Spectrometer). Data were analyzed using the classical isotherm equation for the determination of IC50 values and are pIC50, i.e., −log(IC50), where IC50 is molar concentration and are reported as pIC50, i.e., −log(IC50), where IC50 is molar concentration.

[2] = system: HIF1a protein in H9c2 rat cardiomyocytes; test: Cell-based HIF-alpha stabilization assay (inhibition of PHD in cells); details: 24 hrs compound incubation, HIF1a protein by ELISA; for EC50: Rattus norvegicus, H9c2, 24 h, read-out: Inhibition of PHD in cells (pEC50) (converted)
Procedure: Example B Inhibition of PHD in Cells
PHD Inhibition is Determined Using (Secondary Assay)
Cell-Based HIF-Alpha Stabilization Assay:
H9c2 rat cardiomyocytes (ATCC) were seeded in 96-well tissue culture microplates and cultured for 24 hours prior to addition of compounds (11 point range of serial dilutions) or dimethylsulfoxide vehicle. After 24 hrs of compound incubation, whole cell extracts were prepared by lysing cells in cell extraction buffer containing protease and phosphatase inhibitors (Meso-Scale Discovery). HIF1a protein content was assessed by ELISA (Meso-Scale Discovery) and expressed as a % relative to the maximum response obtained from the positive control, desferrioxamine (Sigma-Aldrich). Compound EC50s were obtained by curve-fitting using XLfit4 MicroSoft Excel curve-fitting software. Compound EC50pos were obtained using XLfit4 to calculate the compound concentration that results in 50% of the desferrioxamine maximum response.

Chain of PHD2 enzyme (residues 181-417) (Q9GZT9 181-417): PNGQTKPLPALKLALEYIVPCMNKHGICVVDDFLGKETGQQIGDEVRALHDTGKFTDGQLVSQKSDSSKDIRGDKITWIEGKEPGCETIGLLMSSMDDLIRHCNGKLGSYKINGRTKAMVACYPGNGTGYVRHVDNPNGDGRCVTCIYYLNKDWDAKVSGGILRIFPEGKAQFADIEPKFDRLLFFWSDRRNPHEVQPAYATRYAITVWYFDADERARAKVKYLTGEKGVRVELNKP

Row | SMILES | PHD Inhibition (pIC50) [1] | IC50 ([1]; read-out: PHD Inhibition (pIC50) (converted)) [nM] | EC50 [2] [nM] | Inhibition of PHD in cells (pEC50) [2]
1 | CN1CC(NC(=O)c2ccc(-n3ncc(-c4ccc(C#N)cc4)c3O)nc2)C1 [Example 76, 6-(4-(4-cyanophenyl)-5-hydroxy-1H-pyrazol-1-yl)-N-(1-methylazetidin-3-yl)nicotinamide] | 6.68 |  | 3090 | 
2 | O=C(NCc1ccccc1)c1ccc(-n2ncc(-c3ccncc3)c2O)nc1 [Example 225, N-benzyl-6-(5-hydroxy-4-(pyridin-4-yl)-1H-pyrazol-1-yl)nicotinamide] | 7.56 |  | 2340 | 
3 | CN(C)CCCNC(=O)c1ccc(-n2ncc(-c3ccc(C#N)cc3)c2O)nc1 [Example 269, 6-(4-(4-cyanophenyl)-5-hydroxy-1H-pyrazol-1-yl)-N-(3-(dimethylamino)propyl)nicotinamide] | 6.82 |  | 1950 | 
4 | COCCCNC(=O)c1ccc(-n2ncc(-c3ccc(=O)n(C)c3)c2O)nc1 [Example 216, 6-(5-hydroxy-4-(1-methyl-6-oxo-1,6-dihydropyridin-3-yl)-1H-pyrazol-1-yl)-N-(3-methoxypropyl)nicotinamide] | 7.1 |  | 5250 | 
5 | COc1cc(-c2cnn(-c3ccc(C(=O)NCc4ccccc4)cn3)c2O)ccn1 [Example 2, N-benzyl-6-(5-hydroxy-4-(2-methoxypyridin-4-yl)-1H-pyrazol-1-yl)nicotinamide] | 7.03 |  | 1260 | 
6 | N#Cc1ccc(-c2cnn(-c3ccc(C(=O)NC4CCCC4)cn3)c2O)cc1 [Example 151, 6-(4-(4-cyanophenyl)-5-hydroxy-1H-pyrazol-1-yl)-N-cyclopentylnicotinamide] | 7.12 |  | 3630 | 
7 | N#Cc1ccc(-c2cnn(-c3ccc(C(=O)NCCF)cn3)c2O)cc1 [Example 78, 6-(4-(4-cyanophenyl)-5-hydroxy-1H-pyrazol-1-yl)-N-(2-fluoroethyl)nicotinamide] | 7.07 |  | 1550 | 
8 | N#Cc1ccc(-c2cnn(-c3ccc(C(=O)NCCOC(F)(F)F)cn3)c2O)cc1 [Example 236, 6-(4-(4-cyanophenyl)-5-hydroxy-1H-pyrazol-1-yl)-N-(2-(trifluoromethoxy)ethyl)nicotinamide] | 7.51 |  | 589 | 
9 | CNC(=O)c1cnc(-n2ncc(-c3ccc(C#N)cc3)c2O)cc1C [Example 273, 6-(4-(4-cyanophenyl)-5-hydroxy-1H-pyrazol-1-yl)-N,4-dimethylnicotinamide] | 7.06 |  | 9330 | 
10 | COCCC1(NC(=O)c2ccc(-n3ncc(-c4ccc(C#N)cc4)c3O)nc2)CCCC1 [Example 354, 6-(4-(4-cyanophenyl)-5-hydroxy-1H-pyrazol-1-yl)-N-(1-(2-methoxyethyl)cyclopentyl)nicotinamide] | 8.36 |  | 1580 | 
11 | COCC(C)CNC(=O)c1ccc(-n2ncc(-c3ccc(C#N)cc3C)c2O)nc1 (stereo not shown) [Example 182, 6-(4-(4-cyano-2-methylphenyl)-5-hydroxy-1H-pyrazol-1-yl)-N-(3-methoxy-2-methylpropyl)nicotinamide] | 8.1 |  | 309 | 
12 | CN1CCC(CNC(=O)c2ccc(-n3ncc(-c4ccc(C#N)cc4)c3O)nc2)CC1 [Example 271, 6-(4-(4-cyanophenyl)-5-hydroxy-1H-pyrazol-1-yl)-N-((1-methylpiperidin-4-yl)methyl)nicotinamide] | 6.98 |  | 1550 | 
13 | Cc1cc(C#N)ccc1-c1cnn(-c2ccc(C(=O)N[C@H]3CC[C@H](O)CC3)cn2)c1O [Example 139, 6-(4-(4-cyano-2-methylphenyl)-5-hydroxy-1H-pyrazol-1-yl)-N-((1r,4r)-4-hydroxycyclohexyl)nicotinamide] | 7.36 |  |  | 7.09
14 | CCN1CCC(CN(C)C(=O)c2ccc(-n3ncc(-c4ccc(C#N)cc4)c3O)nc2)C1 (stereo not shown) [Example 366, 6-(4-(4-cyanophenyl)-5-hydroxy-1H-pyrazol-1-yl)-N-((1-ethylpyrrolidin-3-yl)methyl)-N-methylnicotinamide] |  |  | 3800 | 
15 | N#Cc1ccc(-c2cnn(-c3ccc(C(=O)NC4CCc5ccc(Cl)cc54)cn3)c2O)cc1 (stereo not shown) [Example 79, N-(6-chloro-2,3-dihydro-1H-inden-1-yl)-6-(4-(4-cyanophenyl)-5-hydroxy-1H-pyrazol-1-yl)nicotinamide] |  |  | 1320 | 

Second part, led by results:

Row | PHD Inhibition (pIC50) [1] | IC50 ([1]; read-out: PHD Inhibition (pIC50) (converted)) [nM] | SMILES | EC50 [2] [nM] | Inhibition of PHD in cells (pEC50) [2]
16 | 8.33 |  | COCCCN(C)C(=O)c1ccc(-n2ncc(-c3ccc(C#N)c(F)c3C)c2O)nc1 [Example 326, 6-(4-(4-cyano-3-fluoro-2-methylphenyl)-5-hydroxy-1H-pyrazol-1-yl)-N-(3-methoxypropyl)-N-methylnicotinamide] | 490 | 
17 | 8.03 |  | Cc1cc(C#N)ccc1-c1cnn(-c2ccc(C(=O)N(C)C3CCN(C)CC3)cn2)c1O [Example 289, 6-(4-(4-cyano-2-methylphenyl)-5-hydroxy-1H-pyrazol-1-yl)-N-methyl-N-(1-methylpiperidin-4-yl)nicotinamide] | 1230 | 
18 | 8.27 |  | CCN1CCN(C(=O)c2ccc(-n3ncc(-c4ccc(C#N)c(F)c4C)c3O)nc2)CC1 [Example 305, 4-(1-(5-(4-ethylpiperazine-1-carbonyl)pyridin-2-yl)-5-hydroxy-1H-pyrazol-4-yl)-2-fluoro-3-methylbenzonitrile] | 1320 | 
19 |  | 3.31 | Cc1cc(C#N)ccc1-c1cnn(-c2ccc(C(=O)N3CCN4CCCC4C3)cn2)c1O (racemic) [Example 288, (+/−)-4-(5-hydroxy-1-(5-(octahydropyrrolo[1,2-a]pyrazine-2-carbonyl)pyridin-2-yl)-1H-pyrazol-4-yl)-3-methylbenzonitrile] | 575 | 
20 | 8.20 |  | Cc1cc(C#N)ccc1-c1cnn(-c2ccc(C(=O)N3CCN(C4CC4)[C@@H](C)C3)cn2)c1O [Example 389, (S)-4-(1-(5-(4-cyclopropyl-3-methylpiperazine-1-carbonyl)pyridin-2-yl)-5-hydroxy-1H-pyrazol-4-yl)-3-methylbenzonitrile] | 1150 | 
21 | 8.63 |  | Cc1cc(C#N)c(F)cc1-c1cnn(-c2ccc(C(=O)N3CCN(C)C4(CC4)C3)cn2)c1O [Example 399, 2-fluoro-4-(5-hydroxy-1-(5-(4-methyl-4,7-diazaspiro[2.5]octane-7-carbonyl)pyridin-2-yl)-1H-pyrazol-4-yl)-5-methylbenzonitrile] | 1700 | 
22 | 7.17 |  | Cc1cc(C#N)ccc1-c1cnn(-c2ccc(C(=O)NCC3CCCO3)cn2)c1O (stereo not shown) [Example 133, 6-(4-(4-cyano-2-methylphenyl)-5-hydroxy-1H-pyrazol-1-yl)-N-((tetrahydrofuran-2-yl)methyl)nicotinamide] | 195 | 
23 | 7.49 |  | N#Cc1ccc(-c2cnn(-c3ccc(C(=O)NCC4CCOCC4)cn3)c2O)cc1F [Example 189, 6-(4-(4-cyano-3-fluorophenyl)-5-hydroxy-1H-pyrazol-1-yl)-N-((tetrahydro-2H-pyran-4-yl)methyl)nicotinamide] | 4680 | 
24 | 8.33 |  | Cc1cc(C#N)ccc1-c1cnn(-c2ccc(C(=O)N3CCN(C)CC3)cn2)c1O [Example 290, 4-(5-hydroxy-1-(5-(4-methylpiperazine-1-carbonyl)pyridin-2-yl)-1H-pyrazol-4-yl)-3-methylbenzonitrile] | 912 | 
25 | 7.14 |  | COCC1(NC(=O)c2ccc(-n3ncc(-c4ccc(C#N)cc4C)c3O)nc2)CCCC1 [Example 129, 6-(4-(4-cyano-2-methylphenyl)-5-hydroxy-1H-pyrazol-1-yl)-N-(1-(methoxymethyl)cyclopentyl)nicotinamide] | 186 | 
26 | 7.33 |  | Cc1cc(C#N)ccc1-c1cnn(-c2ccc(C(=O)NC3CCOCC3)cn2)c1O [Example 59, 6-(4-(4-cyano-2-methylphenyl)-5-hydroxy-1H-pyrazol-1-yl)-N-(tetrahydro-2H-pyran-4-yl)nicotinamide] | 70.8 | 
27 | 8.59 |  | Cc1cc(C#N)c(F)cc1-c1cnn(-c2ccc(C(=O)N3CCN(C)CC3)cn2)c1O [Example 396, 2-fluoro-4-(5-hydroxy-1-(5-(4-methylpiperazine-1-carbonyl)pyridin-2-yl)-1H-pyrazol-4-yl)-5-methylbenzonitrile] | 2090 | 
